Test results published in patent US10168323B2, “Compositions and methods for capture of cellular targets of bioactive agents” (Promega Corporation, priority 2013, dated 2019).
Where “and” joins values, the source holds several entries; their conditions need not be identical. Identical values can stand only once. Values belong to the compound of their own block, whether it stands above or below them.

How the values were obtained:
p38 alpha = target: T1, p38 alpha (Homo sapiens, UniProt Q16539); assay: Endogenous target pull-down from HEK293 cells (western blot, mass spec); assay type: cell-based; details: 10 uM conjugate, western blot and mass spec
T1 construct: isolate, e.g., pull-down, endogenous targets from cells; endogenous in cells; host or cells: HEK293
Procedure: HEK293 cells were plated in a 6 well plate (2.5×10^5 cells). 48 hours post plating, a final concentration of 10 uM of BIRB-chloroalkane (PBI-4834) was added to 2 wells while control cells were not treated with the drug conjugate. Following equilibration binding for 2 h, the media was removed, and the cells were quickly washed with PBS and lysed in detergent-based lysis buffer for 10 min. Cell lysates were then transferred to an EPPENDORF tube containing 12.5 ul of settled paramagnetic HALOTAG protein beads and incubated with shaking for 15 min. Following binding, the unbound fraction was removed, the HALOTAG protein paramagnetic beads washed 3×, and the captured targets specifically released from the beads by competition with 150 μM unconjugated BIRB796 for 60 min. The released targets were subjected to mass spec analysis as well as western blot analysis using an anti-p38 alpha antibody (Abcam).

[1] = target: T2, NANOLUC-p38 fusion protein (Homo sapiens, UniProt Q16539); assay: Pull-down of NANOLUC-p38 fusion from cell lysates with HALOTAG protein dimer on HALOLINK plates; assay type: binding; details: p38-Nluc expressing cells treated with drug, listed as BIRB-chloroalkane
T2 construct: NANOLUC luciferase (reporter fusion partner); expressed in transfected cells
Procedure: Different amounts of a HALOTAG protein dimer (dimer of SEQ ID NO: 1) were added to cell lysates expressing a NANOLUC-p38 fusion protein (e.g., reporter/cellular-target fusion) which have or have not been treated with BIRB-chloroalkane (e.g., bioactive-agent/capture-ligand conjugate) as shown in Table 1. After 15 minute incubation, the samples were placed into wells of white, 96-well polystyrene plates activated with HALOTAG ligand (HALOLINK plates; Promega Corp.) and further incubated for 45 minutes. The wells were then washed PBS+0.05% Tween-20 (PBST). Then, 50 ul PBS followed by 50 ul of NANOGLO luciferase detection reagent was added to the wells, and luminescence measured.
Table 2 indicates differences in luminescence in samples with and without HALOTAG dimer (e.g., dimer of SEQ ID NO: 1) that indicate specific pull-down of the NANOLUC-p38 fusion protein.

[2] = target: T3, NANOLUC-p38 alpha fusion protein (Homo sapiens, UniProt Q16539); assay: Pull-down of NANOLUC-p38 alpha fusion from living HEK293 cells onto HALOTAG protein beads; assay type: cell-based
T3 construct: NANOLUC luciferase (reporter fusion partner); expressed in transfected cells; host or cells: HEK293
Procedure: In this example, a BIRB-chloroalkane conjugate (PBI-4834, see below) was utilized to pull down a NANOLUC-p38 alpha fusion protein from living cells.
HEK293 cells in wells of a 96-well plate were transfected using PEI with plasmid DNA encoding NANOLUC-p38 fusion. Twenty-four hours post-transfection, cells were incubated with a final concentration of 10 μM PBI-4834 while control cells were not treated with the conjugated drug. Following equilibration binding of 2 hours, the media was removed, cells were quickly washed with PBS and lysed in a detergent-based lysis buffer for 10 minutes. The cell lysates were then transferred to wells of a 96-well plate which contained 0.5 μl settled paramagnetic HALOTAG protein beads (Promega Corp.) and incubated with shaking for 15-45 minutes. Following binding, the unbound fraction was removed and the HALOTAG protein paramagnetic beads were washed. 150 uM unconjugated BIRB796 was then added and the captured NANOLUC-p38 alpha fusion was specifically released from the beads by competition with the unconjugated BIRB796 for 60 minutes. The released NANOLUC-p38 alpha fusion protein (+PBI-4834) and control (−PBI4834) was detected using NANOGLO luciferase reagent (Promega Corp.).

[3] = target: T3, NANOLUC-p38 alpha fusion protein; assay: Pull-down and release of NANOLUC-p38 alpha fusion from HEK293 cell lysates; assay type: binding
Procedure: In this example, BIRB-chloroalkane conjugate (PBI-4834) and BIRB chloroalkane conjugate containing a cleavable linker (PBI-5131) were utilized to pull-down a NANOLUC-p38 alpha fusion protein from HEK293 cell lysates. Lysate of cells expressing NANOLUC-p38 fusion were incubated with 1 μM PBI-4834 or PBI-5131 (final concentration) while control lysates were not treated with the conjugated drugs. Following equilibration binding for 2 h, the lysates were transferred to wells of a 96-well plate containing 0.5 μl settled paramagnetic HALOTAG protein beads and incubated with shaking for 45 min. Following binding the unbound fraction was removed, the HALOTAG protein paramagnetic beads were washed 3×, and the captured NANLUC-p38 alpha fusion specifically released from the beads by one of two methods: • 1. 150 μM unconjugated BIRB796 was used to compete for binding with the conjugated BIRB796 on the NANOLUC-p38 alpha fusion for 60 min. • 2. The NANOLUC-p38 alpha fusion was rapidly released through 10 min chemical cleavage of the chloroalkane linker with 10 mM of sodium hydrosulfite (PBI-5131 is a chloroalkane cleavable linker). The released NANOLUC-p38 alpha (+PBI4834/+PBI5131) and control (-drug) were detected with NANOGLO luciferase detection reagent.

NANOLUC-DHFR fusion = target: T4, NANOLUC-DHFR fusion (Homo sapiens, UniProt P00374); assay: Binding affinity to DHFR in live cells using BRET; assay type: cell-based; details: live HEK293 cells, in the presence of 1 μM PBI-4890
T4 construct: NANOLUC luciferase (reporter fusion partner); expressed in transfected cells; host or cells: HEK293
T4 sequence (P00374 1-187): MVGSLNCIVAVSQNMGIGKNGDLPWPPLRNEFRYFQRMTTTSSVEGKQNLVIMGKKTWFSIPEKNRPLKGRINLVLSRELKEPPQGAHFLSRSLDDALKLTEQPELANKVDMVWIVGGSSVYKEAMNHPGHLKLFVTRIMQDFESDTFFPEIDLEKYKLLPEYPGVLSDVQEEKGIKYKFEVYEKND
Procedure: Binding affinity to DHFR in live cells was tested using BRET. HEK293 cells in wells of a 96-well plate were transfected using PEI with plasmid DNA encoding a NANOLUC-DHFR fusion. The DNA was diluted 1:50 with a promoterless carrier DNA plasmid (PSI) to a final concentration of 80 ng total DNA per well. Twenty-four hours post-transfection, cells were serum starved for additional 24 hours and then treated with serially diluted PBI-4848 or PBI-5015 in the presence of 1 μM PBI-4890 (TOM-methotrexate derivative). After two hours of equilibration binding, furimazine (a coelenterazine derivative; Promega Corp.) was added to a final concentration of 20 μM, and BRET measured on a Varioskan luminometer.

[4] = target: T5, NANOLUC:DHFR (Nluc:DHFR) fusion (Homo sapiens, UniProt P00374); assay: Pull-down of NANOLUC:DHFR from live HEK293 cells onto HALOTAG protein beads; assay type: cell-based; details: 10 μM conjugate, release with 150 μM methotrexate
T5 construct: NANOLUC luciferase (reporter fusion partner); expressed in transfected cells; host or cells: HEK293
T5 sequence (P00374 1-187): T4 sequence (P00374 1-187)
Procedure: The DNA was diluted 1:50 with a promoterless carrier DNA plasmid (PSI) to a final concentration of 80 ng total DNA per well. Twenty-four hours post-transfection, cells were serum starved for additional 24 h and then incubated with 10 μM PBI-4848 or PBI-5015 while control cells were not treated with the conjugated drug. Following equilibration binding of 2 h, the media was removed, and the cells quickly washed with PBS and lysed in detergent-based lysis buffer for 10 min. Cell lysates were then transferred to wells of a 96-well plate containing 0.5 μl settled paramagnetic HALOTAG protein beads and incubated with shaking for 45 min. Following binding, the unbound fraction was removed, the HALOTAG protein paramagnetic beads washed, 150 μM unconjugated methotrexate added, and the captured NANOLUC:DHFR specifically released from the beads by competition with the unconjugated methotrexate for 60 min. The released NANOLUC:DHFR (+PBI5015 or +PBI 4848) and control samples were detected by NANOGLO luciferase detection reagent.

DHFR = target: T6, DHFR (Homo sapiens, UniProt P00374); assay: Endogenous target pull-down from HEK293 cells (western blot, mass spec); assay type: cell-based; details: 10 uM conjugate, western blot and mass spec
T6 construct: isolate, e.g., pull-down, endogenous targets from cells; endogenous in cells; host or cells: HEK293
T6 sequence (P00374 1-187): T4 sequence (P00374 1-187)
Procedure: HEK293 cells were plated into wells of a 6-well plate (2.5×10^5 cells/well). 48 hours post plating, a final concentration of 10 uM of Methotrexate chloroalkane (PBI-5015) was added to 2 wells while control cells were not treated with the drug conjugate. Following equilibration binding for 2 h, the media was removed, and the cells quickly washed with PBS and lysed in detergent-based lysis buffer for 10 min. Cell lysates were then transferred to an Eppendorf® tube containing 12.5 ul of settled paramagnetic HALOTAG protein beads and incubated with shaking for 15 min. Following binding, the unbound fraction was removed, the HALOTAG paramagnetic beads washed 3×, and the captured targets specifically released from the beads by competition with 150 μM unconjugated methotrexate for 60 mins. The released targets were subjected to mass spec analysis as well as western blot analysis using an anti-DHFR antibody (Sigma). […] Furthermore, although the expression level of DHFR in the cells is very low (not detected in lysate by western blot analysis), it was still efficiently captured as indicated by the western blot analysis (FIG. 8A) and mass spec analysis (FIG. 8B).

T2 sequence (Q16539 whole entry, the tested form may be a part): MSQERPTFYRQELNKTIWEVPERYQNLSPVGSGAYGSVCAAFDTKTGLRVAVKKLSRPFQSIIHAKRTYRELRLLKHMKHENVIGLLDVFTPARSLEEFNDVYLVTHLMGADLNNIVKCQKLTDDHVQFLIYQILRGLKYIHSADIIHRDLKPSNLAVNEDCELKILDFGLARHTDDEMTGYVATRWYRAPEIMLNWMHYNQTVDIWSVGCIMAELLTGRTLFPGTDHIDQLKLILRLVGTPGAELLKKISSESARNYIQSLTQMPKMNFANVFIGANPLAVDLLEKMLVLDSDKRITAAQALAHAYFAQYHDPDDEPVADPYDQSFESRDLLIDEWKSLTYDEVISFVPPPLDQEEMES
T3 sequence (Q16539 whole entry, the tested form may be a part): as above
T1 sequence (Q16539 whole entry): as the sequence (Q16539 whole entry, the tested form may be a part) above

SMILES: CC(C)(C)c1cc(NC(=O)Nc2ccccc2)n(-c2cccc(CNC(=O)CNC(=O)OCCOCCOCCOC(=O)NCCOCCOCCCCCCCl)c2)n1 [PBI-4834]
pull-down of endogenous p38 alpha (p38 alpha): specifically isolated
luminescence ([1]; 2 ug/well HALOTAG dimer): 236900 and 397958 and 431167
luminescence ([1]; 6 ug/well HALOTAG dimer): 401205 and 538956 and 596504
luminescence ([1]; 8 ug/well HALOTAG dimer): 395510 and 526903 and 610628
luminescence ([1]; No HALOTAG dimer): 278085 and 275690 and 443682
expressed fusion specifically captured to the beads ([2]; 10 μM conjugate, HEK293 cells, release with 150 uM BIRB796): 1%
signal over background of capture on HALOTAG protein beads ([2]; within 15 minutes of capture): high signal over background
pull-down efficiency of NANOLUC-p38 alpha ([3]; 1 μM conjugate, HEK293 cell lysate): significantly higher

affinity to DHFR (dose-response BRET curves) (NANOLUC-DHFR fusion): higher affinity
SMILES: CN(Cc1cnc2nc(N)nc(N)c2n1)c1ccc(C(=O)NC(CCC(=O)NCCOCCOCCCCCCCl)C(=O)O)cc1 (stereo not shown) [PBI-4848]

pull-down of Nluc:DHFR fusion [4]: efficiently pulled down
affinity to DHFR (dose-response BRET curves) (NANOLUC-DHFR fusion): lower affinity
pull-down of endogenous DHFR (DHFR): specifically isolated
SMILES: CN(Cc1cnc2nc(N)nc(N)c2n1)c1ccc(C(=O)NC(CCC(=O)NCCCCCNC(=O)OCCOCCOCCOC(=O)NCCOCCOCCCCCCCl)C(=O)O)cc1 (stereo not shown) [PBI-5015]

specific capture after rapid release using chemical cleavage ([3]; 10 min cleavage with 10 mM sodium hydrosulfite): significant increase in specific capture
SMILES: CC(C)(C)c1cc(NC(=O)Nc2ccccc2)n(-c2cccc(CNC(=O)CCCCCOc3ccc(/N=N/c4ccc(C(=O)NCCOCCOCCCCCCCl)cc4)c(O)c3)c2)n1 [PBI-5131]
